≈ marks a conversion by molar mass, not a printed value. Where two headings read alike, the source gives them in different places.
Legend:
[1] = tested on: F. oxysporum (RCMB 008002); test: MIC and MFC determination; type: cell-based
S. aureus ATCC 29213 [2] = test: MIC and MBC determination; type: cell-based; details: S. aureus
E. coli ATCC BAA-196 [3] = test: MIC and MBC against multidrug-resistant strains; type: cell-based; details: Escherichia coli, ATCCBAA196, E. coli ATCC BAA-196
Text: (§1) Norfloxacin was used as a positive control for the multidrug resistance study.
(§2) The experiment was repeating for three-times.

S. aureus ATCC 43300 [4] = test: MIC and MBC against multidrug-resistant strains; type: cell-based; details: Staphylococcus aureus, ATCC43300, S. aureus ATCC 43300
Text: as §1, §2

[5] = tested on: P. aeruginosa ATCC BAA-2111; test: MIC and MBC against multidrug-resistant strains; type: cell-based; details: P. aeruginosa ATCC BAA-2111
Text: as §1, §2

S. aureus ATCC 33591 [6] = test: MIC and MBC against multidrug-resistant strains; type: cell-based; details: Staphylococcus aureus, ATCC33591, S. aureus ATCC 33591
Text: as §1, §2

[7] = tested on: Salmonella typhi (S. typhi ATCC 6539); test: microbe, parasite or virus in culture; type: cell-based; details: Salmonella enterica, Salmonella typhi
[8] = target: E. coli DHFR (dihydrofolate reductase) (Escherichia coli, UniProt P0ABQ4); test: In vitro DHFR enzymatic assay; type: biochemical
E. coli ATCC BAA-196 [9] = test: Inhibition zone against multidrug-resistant bacteria; type: cell-based; details: MDRB E. coli ATCC BAA-196
Text: as §1
(§3) The antimicrobial activity performed at the bacteriology laboratory, Botany and Microbiology Department, Faculty of Science, Al-Azhar University, Cairo, Egypt. The inhibition zone (IZ) of the tested derivatives expressed as the diameter (mm) according to the agar plate diffusion method.

S. aureus ATCC 43300 [10] = test: as above; type: cell-based; details: MDRB S. aureus ATCC 43300
Text: as §1, §3

[11] = tested on: P. aeruginosa ATCC BAA-2111; test: as above; type: cell-based; details: MDRB P. aeruginosa ATCC BAA-2111
Text: as §1, §3

S. aureus ATCC 33591 [12] = test: as above; type: cell-based; details: MDRB S. aureus ATCC 33591
Text: as §1, §3

S. typhi ATCC 6539 = test: Inhibition zone, paper disk/agar diffusion; type: cell-based; details: S. typhi; Na = no activity
Text: as §3

E. coli ATCC 25922 [13] = test: Inhibition zone, paper disk/agar diffusion; type: cell-based; details: E. coli; Na = no activity
Text: as §3

E. faecalis ATCC 29212 [14] = test: Inhibition zone, paper disk/agar diffusion; type: cell-based; details: E. faecalis; Na = no activity
Text: as §3

P. aeruginosa ATCC 27853 [15] = test: Inhibition zone, paper disk/agar diffusion; type: cell-based; details: P. aeruginosa; Na = no activity
Text: as §3

B. subtilis ATCC 6633 [16] = test: Inhibition zone, paper disk/agar diffusion; type: cell-based; details: B. subtilis; Na = no activity
Text: as §3

S. aureus ATCC 29213 [17] = test: Inhibition zone, paper disk/agar diffusion; type: cell-based; details: S. aureus; Na = no activity
Text: as §3

[18] = tested on: F. oxysporum (RCMB 008002); test: Inhibition zone, paper disk/agar diffusion; type: cell-based; details: Na = no activity
Text: as §3

C. albicans (ATCC 10231) [19] = test: Inhibition zone, paper disk/agar diffusion; type: cell-based; details: Na = no activity
Text: as §3

E. faecalis ATCC 29212 [20] = test: MIC and MBC determination; type: cell-based; details: E. faecalis
S. aureus DNA gyrase = S. aureus DNA gyrase (Staphylococcus aureus, UniProt P0A0K8+P20831); test: In vitro DNA gyrase supercoiling enzymatic assay; type: biochemical
MDRB strains = test: MIC and MBC, ranges over the MDRB panel; type: cell-based; details: four MDRB strains
Text: as §1, §2

P. aeruginosa ATCC 27853 [21] = test: MIC and MBC determination; type: cell-based; details: Pseudomonas aeruginosa, ATCC27853, P. aeruginosa
C. albicans (ATCC 10231) [22] = test: MIC and MFC determination; type: cell-based
B. subtilis ATCC 6633 [23] = test: MIC and MBC determination; type: cell-based; details: B. subtilis
E. coli ATCC 25922 [24] = test: MIC and MBC determination; type: cell-based; details: E. coli

E. coli DHFR (dihydrofolate reductase), sequence (P0ABQ4 whole entry): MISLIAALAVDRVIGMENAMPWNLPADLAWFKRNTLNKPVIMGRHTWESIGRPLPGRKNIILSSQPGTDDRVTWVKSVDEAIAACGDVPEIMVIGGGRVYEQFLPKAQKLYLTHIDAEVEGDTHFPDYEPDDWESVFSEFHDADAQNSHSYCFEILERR
S. aureus DNA gyrase, sequence (P20831 whole entry): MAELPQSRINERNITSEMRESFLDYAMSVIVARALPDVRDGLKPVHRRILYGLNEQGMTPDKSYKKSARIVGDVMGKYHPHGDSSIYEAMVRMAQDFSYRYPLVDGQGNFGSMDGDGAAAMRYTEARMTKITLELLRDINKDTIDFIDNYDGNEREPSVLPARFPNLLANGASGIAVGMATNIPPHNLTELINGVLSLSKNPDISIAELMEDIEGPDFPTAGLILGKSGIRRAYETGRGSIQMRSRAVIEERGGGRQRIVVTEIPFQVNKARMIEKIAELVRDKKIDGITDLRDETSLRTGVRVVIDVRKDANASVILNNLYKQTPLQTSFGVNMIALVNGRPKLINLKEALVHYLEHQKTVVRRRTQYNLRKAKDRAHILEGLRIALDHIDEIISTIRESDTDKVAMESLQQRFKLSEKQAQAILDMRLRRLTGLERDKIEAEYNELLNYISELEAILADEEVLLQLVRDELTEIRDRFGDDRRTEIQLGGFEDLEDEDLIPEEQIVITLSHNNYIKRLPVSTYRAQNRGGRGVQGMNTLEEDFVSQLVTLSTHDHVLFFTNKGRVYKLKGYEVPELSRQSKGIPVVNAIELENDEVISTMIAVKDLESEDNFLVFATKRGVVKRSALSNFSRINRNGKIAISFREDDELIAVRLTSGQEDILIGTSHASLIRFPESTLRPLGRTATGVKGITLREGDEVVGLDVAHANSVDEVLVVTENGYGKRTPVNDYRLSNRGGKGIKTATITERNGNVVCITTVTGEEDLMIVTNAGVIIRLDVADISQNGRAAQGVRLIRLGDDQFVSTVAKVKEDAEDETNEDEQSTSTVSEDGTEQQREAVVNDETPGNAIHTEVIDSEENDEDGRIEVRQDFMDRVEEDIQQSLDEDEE
S. aureus DNA gyrase, sequence (P0A0K8 whole entry): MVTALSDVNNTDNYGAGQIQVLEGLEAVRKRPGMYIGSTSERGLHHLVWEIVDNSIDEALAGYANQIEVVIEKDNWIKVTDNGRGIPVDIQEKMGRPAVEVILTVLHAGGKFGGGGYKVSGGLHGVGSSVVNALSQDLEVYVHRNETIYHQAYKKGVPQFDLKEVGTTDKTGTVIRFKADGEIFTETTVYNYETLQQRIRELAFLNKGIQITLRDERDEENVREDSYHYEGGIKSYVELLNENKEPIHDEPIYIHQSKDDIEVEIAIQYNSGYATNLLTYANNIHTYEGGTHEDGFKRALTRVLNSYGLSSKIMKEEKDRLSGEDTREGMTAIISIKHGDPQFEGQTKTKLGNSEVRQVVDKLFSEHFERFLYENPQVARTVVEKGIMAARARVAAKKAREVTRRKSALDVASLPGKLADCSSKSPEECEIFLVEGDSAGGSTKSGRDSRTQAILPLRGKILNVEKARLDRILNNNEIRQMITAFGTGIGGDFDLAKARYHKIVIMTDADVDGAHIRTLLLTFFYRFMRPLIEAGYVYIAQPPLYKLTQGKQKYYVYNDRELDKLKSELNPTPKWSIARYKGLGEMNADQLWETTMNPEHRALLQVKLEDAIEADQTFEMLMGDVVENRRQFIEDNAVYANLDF

N#Cc1c(-c2ccc(Cl)cc2)c(C#N)c(=O)n(-c2ccc(S(=O)(=O)NC(=N)N)cc2)c1N [Compound 3a, 4-(6-Amino-4-(4-chlorophenyl)-3,5-dicyano-2-oxopyridin-1(2H)-yl)-N-carbamimidoylbenzenesulfonamide]
MFC [1]: 56.74 ± 0.98 µM (≈ 26.5 µg/mL) | MFC/MIC [1]: <2 | MIC [1]: 33.38 ± 0.74 µM (≈ 15.6 µg/mL) | MFC ([1]; Fusarium oxysporum, RCMB008002, read-out: MFC): 56.7 µM (≈ 26.5 µg/mL) | MIC ([1]; Fusarium oxysporum, RCMB008002, read-out: MIC): 33.4 µM (≈ 15.6 µg/mL) | MBC (S. aureus ATCC 29213 [2]): 33.38 ± 0.65 µM (≈ 15.6 µg/mL) | MIC (S. aureus ATCC 29213 [2]): 16.69 ± 0.87 µM (≈ 7.81 µg/mL) | MBC (S. aureus ATCC 29213 [2]; Staphylococcus aureus, ATCC29213, read-out: MBC): 33.4 µM (≈ 15.6 µg/mL) | MIC (S. aureus ATCC 29213 [2]; Staphylococcus aureus, ATCC29213, read-out: MIC): 16.7 µM (≈ 7.81 µg/mL) | MBC (E. coli ATCC BAA-196 [3]; read-out: MBC): 33.4 ± 0.84 µM (≈ 15.6 µg/mL) | MIC (E. coli ATCC BAA-196 [3]; read-out: MIC): 16.7 ± 0.41 µM (≈ 7.81 µg/mL) | MBC (S. aureus ATCC 43300 [4]; read-out: MBC): 16.3 ± 0.36 µM (≈ 7.61 µg/mL) | MIC (S. aureus ATCC 43300 [4]; read-out: MIC): 8.33 ± 0.29 µM (≈ 3.9 µg/mL) | MBC [5]: 14.23 ± 0.65 µM (≈ 6.66 µg/mL) | MIC [5]: 9.48 ± 0.54 µM (≈ 4.44 µg/mL) | MBC ([5]; Pseudomonas aeruginosa, ATCCBAA2111, read-out: MBC): 14.2 µM (≈ 6.66 µg/mL) | MIC ([5]; Pseudomonas aeruginosa, ATCCBAA2111, read-out: MIC): 9.48 µM (≈ 4.44 µg/mL) | MBC (S. aureus ATCC 33591 [6]; read-out: MBC): 23.7 ± 0.28 µM (≈ 11.1 µg/mL) | MIC (S. aureus ATCC 33591 [6]; read-out: MIC): 11.8 ± 0.24 µM (≈ 5.54 µg/mL) | MBC ([7]; read-out: MBC): 22.6 ± 0.32 µM (≈ 10.6 µg/mL) | MIC ([7]; read-out: MIC): 11.9 ± 0.62 µM (≈ 5.57 µg/mL) | IC50 [8]: 5.44 ± 0.95 µM | fold relative to trimethoprim ([8]; E. coli DHFR IC50): 0.94 fold | Mean Diameter of Inhibition Zone (E. coli ATCC BAA-196 [9]): 22 ± 0.23 mm | Mean Diameter of Inhibition Zone (S. aureus ATCC 43300 [10]): 25 ± 0.4 mm | Mean Diameter of Inhibition Zone [11]: 24 ± 0.22 mm | Mean Diameter of Inhibition Zone (S. aureus ATCC 33591 [12]): 23 ± 0.47 mm | Mean Diameter of the Inhibition Zone (S. typhi ATCC 6539): 18 ± 0.16 mm | Mean Diameter of the Inhibition Zone (E. coli ATCC 25922 [13]): 24 ± 0.20 mm | Mean Diameter of the Inhibition Zone (E. faecalis ATCC 29212 [14]): 21 ± 0.11 mm | Mean Diameter of the Inhibition Zone (P. aeruginosa ATCC 27853 [15]): 20 ± 0.15 mm | Mean Diameter of the Inhibition Zone (B. subtilis ATCC 6633 [16]): 31 ± 0.40 mm | Mean Diameter of the Inhibition Zone (S. aureus ATCC 29213 [17]): 25 ± 0.31 mm | Mean Diameter of the Inhibition Zone [18]: 21 ± 0.30 mm | Mean Diameter of the Inhibition Zone (C. albicans (ATCC 10231) [19]): 22 ± 0.35 mm | MBC (E. faecalis ATCC 29212 [20]): 15.83 ± 0.47 µM (≈ 7.41 µg/mL) | MIC (E. faecalis ATCC 29212 [20]): 8.33 ± 0.36 µM (≈ 3.9 µg/mL) | MBC (E. faecalis ATCC 29212 [20]; Enterococcus faecalis, ATCC29212, read-out: MBC): 15.8 µM (≈ 7.41 µg/mL) | MIC (E. faecalis ATCC 29212 [20]; Enterococcus faecalis, ATCC29212, read-out: MIC): 8.33 µM (≈ 3.9 µg/mL) | IC50 (S. aureus DNA gyrase): 22 ± 1.35 µM | fold potency relative to ciprofloxacin (S. aureus DNA gyrase; S. aureus DNA gyrase IC50): ~1.19 fold | MBC range (MDRB strains): 14.23 to 33.38 µM | MIC range (MDRB strains): 8.33 to 16.69 µM | MBC (P. aeruginosa ATCC 27853 [21]; read-out: MBC): 66.8 ± 0.87 µM (≈ 31.2 µg/mL) | MIC (P. aeruginosa ATCC 27853 [21]; read-out: MIC): 33.4 ± 0.35 µM (≈ 15.6 µg/mL) | MFC (C. albicans (ATCC 10231) [22]): 26.69 ± 0.54 µM (≈ 12.5 µg/mL) | MFC/MIC (C. albicans (ATCC 10231) [22]): <2 | MIC (C. albicans (ATCC 10231) [22]): 16.69 ± 0.75 µM (≈ 7.81 µg/mL) | MFC (C. albicans (ATCC 10231) [22]; Candida albicans, ATCC10231, read-out: MFC): 26.7 µM (≈ 12.5 µg/mL) | MIC (C. albicans (ATCC 10231) [22]; Candida albicans, ATCC10231, read-out: MIC): 16.7 µM (≈ 7.81 µg/mL) | MBC (B. subtilis ATCC 6633 [23]): 19.6 ± 0.65 µM (≈ 9.17 µg/mL) | MIC (B. subtilis ATCC 6633 [23]): 9.61 ± 1.65 µM (≈ 4.5 µg/mL) | MBC (B. subtilis ATCC 6633 [23]; Bacillus subtilis, ATCC6633, read-out: MBC): 19.6 µM (≈ 9.17 µg/mL) | MIC (B. subtilis ATCC 6633 [23]; Bacillus subtilis, ATCC6633, read-out: MIC): 9.61 µM (≈ 4.5 µg/mL) | MBC (E. coli ATCC 25922 [24]): 30.02 ± 0.52 µM (≈ 14 µg/mL) | MIC (E. coli ATCC 25922 [24]): 16.69 ± 0.84 µM (≈ 7.81 µg/mL) | MBC (E. coli ATCC 25922 [24]; Escherichia coli, ATCC25922, read-out: MBC): 30 µM (≈ 14 µg/mL) | MIC (E. coli ATCC 25922 [24]; Escherichia coli, ATCC25922, read-out: MIC): 16.7 µM (≈ 7.81 µg/mL)

Reference: PMC7915026, “Sulfaguanidine Hybrid with Some New Pyridine-2-One Derivatives: Design, Synthesis, and Antimicrobial Activity against Multidrug-Resistant Bacteria as Dual DNA Gyrase and DHFR Inhibitors” (Antibiotics, 2021)
